Measured values as given in PubChem BioAssay AID652032 (The Scripps Research Institute Molecular Screening Center, 2013).

The compounds below were run against Kappa-type opioid receptor (Homo sapiens) (UniProt P41145) (assay: kappa opioid receptor antagonism potency – cell-based, fluorescence, dose response, late-stage follow-up (AID 652032)). Conditions: OPRK1-expressing cells, fluorescence antagonist read-out.
Sequence of Kappa-type opioid receptor (Homo sapiens) (P41145 whole entry, looked up): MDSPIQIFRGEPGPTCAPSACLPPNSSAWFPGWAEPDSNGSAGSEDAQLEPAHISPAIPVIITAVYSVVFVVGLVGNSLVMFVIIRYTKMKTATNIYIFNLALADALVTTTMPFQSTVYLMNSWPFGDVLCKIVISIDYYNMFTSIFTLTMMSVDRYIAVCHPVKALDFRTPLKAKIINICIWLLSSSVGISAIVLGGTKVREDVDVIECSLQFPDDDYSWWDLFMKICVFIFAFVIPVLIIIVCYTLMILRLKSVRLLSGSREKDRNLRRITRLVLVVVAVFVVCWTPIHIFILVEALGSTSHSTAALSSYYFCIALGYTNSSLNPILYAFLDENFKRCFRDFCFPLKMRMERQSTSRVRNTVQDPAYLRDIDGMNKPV

IC50 | Compound
5900 nM | COC(=O)c1cc(Br)cnc1N1CCC(N)C(O)C1 (configuration not stated)
2700 nM | COC(=O)c1cc(Br)cnc1N1CCC(N(C)C2CCCCC2)CC1
231 nM | COC(=O)c1cc(Br)cnc1N1CCC(N[C@@H]2CCCC[C@H]2O)CC1
159 nM | COC(=O)c1cc(Cl)cnc1N1CCC(NC2CCCCC2)CC1
133 nM | COC(=O)c1cc(Br)cnc1N1CCC(NC2CCCCC2)CC1
6800 nM | COC(=O)c1cc(Br)cnc1N1CCC(N[C@H](C)C2CCCCC2)CC1
652 nM | COC(=O)c1cc(Br)cnc1N1CCC(NC2CCCC(O)C2)CC1 (configuration not stated)
3500 nM | COC(=O)c1cc(Br)cnc1N1CCC(CNC2CCCCC2)CC1
2600 nM | CCOC(=O)c1cc(C(=O)OC)c(C)nc1N1CCC(NC2CCCCC2)CC1
185 nM | COC(=O)c1cc(Br)cnc1N1CCC(NC2CCCCC2)C1 (configuration not stated)
6600 nM | COC(=O)c1cc(F)cnc1N1CCC(NC2CCCCC2)CC1
9200 nM | COC(=O)c1cc(Br)cnc1N1CCC(NCCO)CC1
621 nM | COC(=O)c1cc(Br)cnc1N1CCC(NC2CCOCC2)CC1
267 nM | COC(=O)c1cc(Br)cnc1N1CCC(NC2CCCCC2OC)CC1 (configuration not stated)
110 nM | COC(=O)c1cc(Br)cnc1N1CCC(NC2CCCCCC2)CC1
628 nM | COC(=O)c1cc(NC(C)=O)cnc1N1CCC(NC2CCCCC2)CC1
120 nM | COC(=O)c1cc(Br)cnc1N1CCC(NC2CCCC2)CC1
398 nM | CC(C)OC(=O)c1cc(Br)cnc1N1CCC(NC2CCCCC2)CC1
536 nM | COC(=O)c1cc(Br)cnc1N1CCC(NC2CCC(C)CC2)CC1 (configuration not stated)
79 nM | COC(=O)c1cc(I)cnc1N1CCC(NC2CCCCC2)CC1
2200 nM | COC(=O)c1cccnc1N1CCC(NC2CCCCC2)C(O)C1 (configuration not stated)
5200 nM | O=C(O)c1cc(Br)cnc1N1CCC(NC2CCCCC2)CC1
